# Structures can show the parent of a compound that is named as a salt. Where two headings read alike, the source gives them in different places. Marks after values point to notes of the source that are not given here.
# How the values were obtained:
# AGE formation = assay: Bovine serum albumin-methylglyoxal assay on AGE formation; assay type: biochemical; conditions: for IC50: BSA-methylglyoxal, 37 °C, 48 h
# Experimental: Bovine serum albumin (50 mg/mL) was incubated at 37 °C for 48 h with methylglyoxal (100 mM) in sodium phosphate buffer (0.1 M, pH 7.4) containing 0.2 g/L NaN3 in the presence of various concentrations of the compounds (including a control).
# (§1) This test was used to evaluate the ability of samples to inhibit cross-linking of the GK peptide in the presence of D-ribose using the method described by Hwang et al. The GK peptide (26.7 mg/mL) was incubated with D-ribose (200 mg/mL) in sodium phosphate buffer (0.5 M, pH 7.4) containing 0.2 g/L NaN3 under sterile conditions at 37 °C for 72 h. […] All reagents and samples were sterilized by filtration through […] membrane filters. The fluorescence intensity was measured at an excitation wavelength of 355 nm and an emission wavelength of 460 nm with a Luminescence spectrometer LS50B (Perkin-Elmer Ltd., Buckinghamshire, England). AG was used as a positive control.
# AGEs cross-linking = assay: N-acetyl-glycyl-lysine-methyl ester D-ribose assay on AGE cross-linking; assay type: biochemical; conditions: for IC50: GK peptide-D-ribose, 37 °C, 72 h
# Experimental: as §1
# [1] = test system: Amadori compound formation; assay: Hemoglobin-δ-gluconolactone assay of Amadori compound formation; assay type: biochemical; conditions: for IC50: early stage of AGE formation; for inhibitory activity on Amadori compound formation, fold higher than positive control AG: relative to Aminoguanidine hydrochloride (IC50 = 109.74 μM)
# [2] = Water solubility analysis; assay type: physicochemical; conditions: for solubility at 1 h: thermodynamic from solid, distilled water, 37 °C, sonication 1 h
# Experimental: CS and derivatives were dissolved in distilled water and incubated at 37 °C with sonication for 1 h to maximize solubility. After sonication, undissolved samples were eliminated by centrifugation (7000× g, 37 °C, 5 min). The supernatants were diluted in methanol and filtered through a 0.45 μm disposable syringe filter (Advantec, Dublin, CA, USA) to analyze the concentration of the samples using HPLC analysis.
# [3] = MGO trapping capacity by HPLC (kinetic study of MGO-conjugated adducts)
# Experimental: […] The incubated mixture was filtered using a Microcon YM-10 centrifugal filter unit by centrifugation at 5167× g for 30 min at 4 °C. The filtrate was subsequently analyzed by high-performance liquid chromatography (HPLC) using the methods mentioned in the HPLC analysis section. The samples were then stored at −80 °C for further use.
# HPLC was performed on an Agilent1100 series system equipped with a diode-array detector (DAD; Agilent, Sunnyvale, CA, USA) consisting of a vacuum degasser (G1322A), a quaternary pump (G1311A), an auto-sampler (G1313A), a thermostat column compartment (G1316A), and a DAD (G1315B). […] Sample injection volume was 10 μL. The samples were eluted with acidified water (0.1% trifluoroacetic acid, A) and MeOH (B) at a flow rate of 0.7 mL/min. The optimized gradient chromatographic conditions were 5–100% B at 0–40 min; 100–5% B at 40–42 min; and isocratic 5% B at 42–45 min. The detector monitored the eluent at a wavelength of 280 nm.
# [4] = cited from earlier work
# [5] = chrysin:MGO 1:0.1, incubation 1 h
# [6] = chrysin:MGO 1:0.1, incubation 3 h
# [7] = chrysin:MGO 1:0.1, incubation 6 h
# [8] = chrysin:MGO 1:0.1, incubation 12 h
# [9] = chrysin:MGO 1:0.1, incubation 36 h
# [10] = chrysin:MGO 1:0.1, incubation 48 h
# [11] = chrysin:MGO 1:0.5, incubation 1 h
# [12] = chrysin:MGO 1:0.5, incubation 3 h
# [13] = chrysin:MGO 1:0.5, incubation 6 h
# [14] = chrysin:MGO 1:0.5, incubation 12 h
# [15] = chrysin:MGO 1:0.5, incubation 36 h
# [16] = chrysin:MGO 1:0.5, incubation 48 h
# [17] = chrysin:MGO 1:1, incubation 1 h
# [18] = chrysin:MGO 1:1, incubation 3 h
# [19] = chrysin:MGO 1:1, incubation 6 h
# [20] = chrysin:MGO 1:1, incubation 12 h
# [21] = chrysin:MGO 1:1, incubation 36 h
# [22] = chrysin:MGO 1:1, incubation 48 h
# [23] = chrysin:MGO 1:5, incubation 1 h
# [24] = chrysin:MGO 1:5, incubation 3 h
# [25] = chrysin:MGO 1:5, incubation 6 h
# [26] = chrysin:MGO 1:5, incubation 12 h
# [27] = chrysin:MGO 1:5, incubation 36 h
# [28] = chrysin:MGO 1:5, incubation 48 h
# [29] = chrysin:MGO 1:10, incubation 1 h
# [30] = chrysin:MGO 1:10, incubation 3 h
# [31] = chrysin:MGO 1:10, incubation 6 h
# [32] = chrysin:MGO 1:10, incubation 12 h
# [33] = chrysin:MGO 1:10, incubation 12 h, listed as CS
# [34] = chrysin:MGO 1:10, incubation 36 h
# [35] = chrysin:MGO 1:10, incubation 48 h
# [36] = chrysin:MGO 1:10, incubation 48 h, listed as CS
# [37] = chrysin:MGO 1:10, incubation 48 h, listed as chrysin
smiles,measurement,setting,value
"COc1cc(OC)c2c(=O)cc(-c3ccccc3)oc2c1 [5,7-Di-O-methoxychrysin, 5,7-di-O-methoxychrysin]",IC50,AGE formation,41.8 µM
same,IC50,AGEs cross-linking,0.0399 mM
same,IC50,[1],7.88 µM
same,"inhibitory activity on Amadori compound formation, fold higher than positive control AG",[1],13.92 fold
same,solubility at 1 h,[2],11 µM
"CC(=O)Oc1cc(O)c2c(=O)cc(-c3ccccc3)oc2c1 [7-O-Acetylchrysin, 7-O-acetylchrysin]",IC50,AGE formation,21.6 µM
same,IC50,AGEs cross-linking,> 2 mM
same,IC50,[1],23.5 µM
same,"inhibitory activity on Amadori compound formation, fold higher than positive control AG",[1],4.66 fold
same,"water solubility, fold higher than CS",[2]; relative to CS,2.87 fold
same,solubility at 1 h,[2],86 µM
"COc1cc(O)c2c(=O)cc(-c3ccccc3)oc2c1 [7-O-Methoxychrysin, 7-O-methoxychrysin]",IC50,AGE formation,> 200 µM
same,IC50,AGEs cross-linking,> 2 mM
same,IC50,[1],> 31000 µM
same,inhibitory activity on Amadori compound formation,[1]; up to a concentration of 10.0 mg/mL,no inhibitory activities
same,solubility at 1 h,[2],10 µM
"CC(C)=CCOc1cc(O)c2c(=O)cc(-c3ccccc3)oc2c1 [7-O-Prenylchrysin, 7-O-prenylchrysin]",solubility at 1 h,[2],9 µM
"N=C(N)NN [Aminoguanidine, Aminoguanidine hydrochloride, reference compound]",IC50,AGE formation,137 µM
same,IC50,AGEs cross-linking,1.9 mM
same,IC50,[1],110 µM
"O=c1cc(-c2ccccc2)oc2cc(O)cc(O)c12 [Chrysin, 5,7-dihydroxyflavone]",HPLC area percentage of chrysin-di-MGO adduct,[3]; [5],0.0%
same,HPLC area percentage of chrysin-mono-MGO adduct,[3]; [5],1.7%
same,HPLC area percentage of chrysin-di-MGO adduct,[3]; [6],0.1%
same,HPLC area percentage of chrysin-mono-MGO adduct,[3]; [6],2.9%
same,HPLC area percentage of chrysin-di-MGO adduct,[3]; [7],0.1%
same,HPLC area percentage of chrysin-mono-MGO adduct,[3]; [7],4.0%
same,HPLC area percentage of chrysin-di-MGO adduct,[3]; [8],0.2%
same,HPLC area percentage of chrysin-mono-MGO adduct,[3]; [8],7.6%
same,HPLC area percentage of chrysin-mono-MGO adduct,"[3]; chrysin:MGO 1:0.1, incubation 12 h, listed as CS",8%
same,HPLC area percentage of chrysin-di-MGO adduct,[3]; [9],1.1%
same,HPLC area percentage of chrysin-mono-MGO adduct,[3]; [9],19.9%
same,HPLC area percentage of chrysin-di-MGO adduct,[3]; [10],2.9%
same,HPLC area percentage of chrysin-mono-MGO adduct,[3]; [10],27.2%
same,HPLC area percentage of chrysin-di-MGO adduct,[3]; [11],0.0%
same,HPLC area percentage of chrysin-mono-MGO adduct,[3]; [11],4.1%
same,HPLC area percentage of chrysin-di-MGO adduct,[3]; [12],0.2%
same,HPLC area percentage of chrysin-mono-MGO adduct,[3]; [12],7.7%
same,HPLC area percentage of chrysin-di-MGO adduct,[3]; [13],0.5%
same,HPLC area percentage of chrysin-mono-MGO adduct,[3]; [13],13.1%
same,HPLC area percentage of chrysin-di-MGO adduct,[3]; [14],1.1%
same,HPLC area percentage of chrysin-mono-MGO adduct,[3]; [14],21.4%
same,HPLC area percentage of chrysin-mono-MGO adduct,"[3]; chrysin:MGO 1:0.5, incubation 12 h, listed as CS",21%
same,HPLC area percentage of chrysin-di-MGO adduct,[3]; [15],4.1%
same,HPLC area percentage of chrysin-mono-MGO adduct,[3]; [15],36.5%
same,HPLC area percentage of chrysin-di-MGO adduct,[3]; [16],7.6%
same,HPLC area percentage of chrysin-mono-MGO adduct,[3]; [16],45.8%
same,HPLC area percentage of chrysin-di-MGO adduct,[3]; [17],0.1%
same,HPLC area percentage of chrysin-mono-MGO adduct,[3]; [17],5.0%
same,HPLC area percentage of chrysin-di-MGO adduct,[3]; [18],0.3%
same,HPLC area percentage of chrysin-mono-MGO adduct,[3]; [18],10.8%
same,HPLC area percentage of chrysin-di-MGO adduct,[3]; [19],0.7%
same,HPLC area percentage of chrysin-mono-MGO adduct,[3]; [19],18.1%
same,HPLC area percentage of chrysin-di-MGO adduct,[3]; [20],1.5%
same,HPLC area percentage of chrysin-mono-MGO adduct,[3]; [20],29.5%
same,HPLC area percentage of chrysin-mono-MGO adduct,"[3]; chrysin:MGO 1:1, incubation 12 h, listed as CS",30%
same,HPLC area percentage of chrysin-di-MGO adduct,[3]; [21],6.4%
same,HPLC area percentage of chrysin-mono-MGO adduct,[3]; [21],45.1%
same,HPLC area percentage of chrysin-di-MGO adduct,[3]; [22],11.6%
same,HPLC area percentage of chrysin-mono-MGO adduct,[3]; [22],55.0%
same,HPLC area percentage of chrysin-di-MGO adduct,[3]; [23],0.3%
same,HPLC area percentage of chrysin-mono-MGO adduct,[3]; [23],12.4%
same,HPLC area percentage of chrysin-di-MGO adduct,[3]; [24],0.8%
same,HPLC area percentage of chrysin-mono-MGO adduct,[3]; [24],19.0%
same,HPLC area percentage of chrysin-di-MGO adduct,[3]; [25],1.7%
same,HPLC area percentage of chrysin-mono-MGO adduct,[3]; [25],26.7%
same,HPLC area percentage of chrysin-di-MGO adduct,[3]; [26],3.6%
same,HPLC area percentage of chrysin-mono-MGO adduct,[3]; [26],35.6%
same,HPLC area percentage of chrysin-mono-MGO adduct,"[3]; chrysin:MGO 1:5, incubation 12 h, listed as CS",36%
same,HPLC area percentage of chrysin-di-MGO adduct,[3]; [27],15.9%
same,HPLC area percentage of chrysin-mono-MGO adduct,[3]; [27],49.1%
same,HPLC area percentage of chrysin-di-MGO adduct,[3]; [28],25.2%
same,HPLC area percentage of chrysin-mono-MGO adduct,[3]; [28],57.5%
same,HPLC area percentage of chrysin-di-MGO adduct,[3]; [29],0.5%
same,HPLC area percentage of chrysin-mono-MGO adduct,[3]; [29],11.9 ^a %
same,HPLC area percentage of chrysin-di-MGO adduct,[3]; [30],1.0%
same,HPLC area percentage of chrysin-mono-MGO adduct,[3]; [30],21.0%
same,HPLC area percentage of chrysin-di-MGO adduct,[3]; [31],1.9%
same,HPLC area percentage of chrysin-mono-MGO adduct,[3]; [31],31.9%
same,HPLC area percentage of chrysin-di-MGO adduct,[3]; [32],5.7%
same,HPLC area percentage of chrysin-mono-MGO adduct,[3]; [32],42.1%
same,HPLC area percentage of chrysin-di-MGO adduct,[3]; [33],6%
same,HPLC area percentage of chrysin-mono-MGO adduct,[3]; [33],42%
same,HPLC area percentage of chrysin-di-MGO adduct,[3]; [34],17.3%
same,HPLC area percentage of chrysin-mono-MGO adduct,[3]; [34],57.4%
same,HPLC area percentage of chrysin-di-MGO adduct,[3]; [35],29.7%
same,HPLC area percentage of chrysin-mono-MGO adduct,[3]; [35],63.9%
same,HPLC area percentage of chrysin-di-MGO adduct,[3]; [36],30%
same,HPLC area percentage of chrysin-mono-MGO adduct,[3]; [36],64%
same,HPLC area percentage of chrysin-di-MGO adduct,[3]; [37],29.69%
same,HPLC area percentage of chrysin-mono-MGO adduct,[3]; [37],63.86%
same,CS–di MGO adduct formation across ratios,[3]; ratios shown in Table 2B,0.2–3%
same,IC50,AGE formation,25 µM
same,"activity against AGE formation, fold higher than AG",AGE formation; relative to AG (IC50 = 136.79 μM),5.48 fold
same,IC50,AGEs cross-linking,> 2 mM
same,inhibitory activity against AGEs cross-linking,AGEs cross-linking; at a concentration of 10.0 mg/mL,no inhibitory activities
same,IC50,[1],17.4 µM
same,"inhibitory activity on Amadori compound formation, fold higher than positive control AG",[1],6.30 fold
same,solubility at 1 h,[2],30 µM
C[N+](C)(C)C[C@H](O)CC(=O)[O-] [L-carnitine],bioavailability,[4]; oral administration,14–18%
CC(=O)O[C@H](CC(=O)[O-])C[N+](C)(C)C [acetyl-L-carnitine],bioavailability,"[4]; in vivo, po",43%

# Reference: article PMC6099615, “Anti-glycation, Carbonyl Trapping and Anti-inflammatory Activities of Chrysin Derivatives” (Molecules : A Journal of Synthetic Chemistry and Natural …, 2018)
